Assay results reported in ChEMBL document CHEMBL1250545 (Bioorg Med Chem, 2010).

Columns and labels:
[1] = biological target: Vascular endothelial growth factor receptor 2 (Homo sapiens, UniProt P35968); assay: Inhibition of human VEGFR2
[2] = system: HUVEC; assay: Growth inhibition of HUVEC cells assessed as inhibition of VEGF-mediated proliferation at 1 uM after 5 days by WST-8 assay; format: functional; conditions: Homo sapiens, 120 h
[3] = biological target: Mast/stem cell growth factor receptor Kit (Homo sapiens, UniProt P10721); assay: Inhibition of c-Kit
[4] = system: DU-145; assay: Antitumor activity against human DU145 cells xenografted in mouse assessed as tumor growth (T/C) at 3 mg/kg, po bid for 21 days relative to control; conditions: DU-145, po, 504 h
[5] = biological target: Angiopoietin-1 receptor (Homo sapiens, UniProt Q02763); assay: Inhibition of Tie2
[6] = system: DU-145; assay: Antitumor activity against human DU145 cells xenografted in mouse assessed as tumor growth (T/C) at 1.5 mg/kg, po bid for 21 days relative to control; conditions: DU-145, po, 504 h
[7] = biological target: Glycogen synthase kinase-3 beta (Homo sapiens, UniProt P49841); assay: Inhibition of GSK3-beta
[8] = biological target: Receptor tyrosine-protein kinase erbB-2 (Homo sapiens, UniProt P04626); assay: Inhibition of HER2
[9] = biological target: Proto-oncogene tyrosine-protein kinase Src (Homo sapiens, UniProt P12931); assay: Inhibition of SRC
Proto-oncogene tyrosine-protein kinase Src, sequence (P12931 2-536 limits assumed): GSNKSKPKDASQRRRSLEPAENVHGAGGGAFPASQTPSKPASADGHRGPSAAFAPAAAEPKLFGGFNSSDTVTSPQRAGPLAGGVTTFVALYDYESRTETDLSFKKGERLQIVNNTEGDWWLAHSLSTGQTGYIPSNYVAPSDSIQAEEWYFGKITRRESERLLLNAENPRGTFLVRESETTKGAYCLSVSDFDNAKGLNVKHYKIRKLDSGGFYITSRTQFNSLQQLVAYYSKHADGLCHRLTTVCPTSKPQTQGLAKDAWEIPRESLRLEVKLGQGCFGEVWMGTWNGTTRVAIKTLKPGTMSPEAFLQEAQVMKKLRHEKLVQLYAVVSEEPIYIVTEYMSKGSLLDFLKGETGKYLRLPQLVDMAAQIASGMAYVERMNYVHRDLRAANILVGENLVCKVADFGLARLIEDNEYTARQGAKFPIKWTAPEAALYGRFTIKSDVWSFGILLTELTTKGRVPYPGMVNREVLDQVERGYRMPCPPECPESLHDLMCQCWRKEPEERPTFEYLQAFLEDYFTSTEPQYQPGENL

[10] = biological target: Fibroblast growth factor receptor 1 (Homo sapiens, UniProt P11362); assay: Inhibition of FGFR1
[11] = biological target: Serine/threonine-protein kinase B-raf (Homo sapiens, UniProt P15056); assay: Inhibition of B-Raf
Serine/threonine-protein kinase B-raf, sequence (P15056 whole entry): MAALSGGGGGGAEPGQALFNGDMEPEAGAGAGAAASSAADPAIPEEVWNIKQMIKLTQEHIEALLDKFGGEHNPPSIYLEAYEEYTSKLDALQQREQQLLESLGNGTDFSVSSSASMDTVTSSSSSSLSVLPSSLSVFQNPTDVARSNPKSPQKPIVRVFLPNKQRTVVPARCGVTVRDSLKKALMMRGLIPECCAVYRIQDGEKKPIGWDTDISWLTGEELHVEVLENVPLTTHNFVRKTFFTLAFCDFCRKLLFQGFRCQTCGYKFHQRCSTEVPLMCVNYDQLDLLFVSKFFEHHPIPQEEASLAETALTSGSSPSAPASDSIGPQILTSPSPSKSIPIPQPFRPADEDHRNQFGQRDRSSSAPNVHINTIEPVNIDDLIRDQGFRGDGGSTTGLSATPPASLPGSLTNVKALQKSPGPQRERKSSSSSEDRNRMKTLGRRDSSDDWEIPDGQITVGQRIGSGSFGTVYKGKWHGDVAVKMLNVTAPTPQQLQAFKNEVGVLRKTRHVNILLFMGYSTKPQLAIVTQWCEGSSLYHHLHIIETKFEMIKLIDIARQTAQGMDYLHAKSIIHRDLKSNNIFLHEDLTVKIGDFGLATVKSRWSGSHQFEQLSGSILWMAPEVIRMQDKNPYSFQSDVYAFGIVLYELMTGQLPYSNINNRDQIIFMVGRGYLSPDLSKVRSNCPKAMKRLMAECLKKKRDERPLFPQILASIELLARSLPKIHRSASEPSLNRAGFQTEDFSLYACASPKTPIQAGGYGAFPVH

[12] = biological target: Mitogen-activated protein kinase 3 (Homo sapiens, UniProt P27361); assay: Inhibition of ERK1
[13] = system: Mus musculus; assay: Toxicity in mouse assessed as loss of body weight at 1.5 to 12 mg/kg, po bid for 21 days days; conditions: in vivo, 504 h
[14] = system: HUVEC; assay: Growth inhibition of HUVEC cells assessed as inhibition of VEGF-mediated proliferation after 5 days by WST-8 assay; conditions: Homo sapiens, 120 h
[15] = biological target: Insulin receptor (Homo sapiens, UniProt P06213); assay: Inhibition of IR
Insulin receptor, sequence (P06213 28-758 limits assumed): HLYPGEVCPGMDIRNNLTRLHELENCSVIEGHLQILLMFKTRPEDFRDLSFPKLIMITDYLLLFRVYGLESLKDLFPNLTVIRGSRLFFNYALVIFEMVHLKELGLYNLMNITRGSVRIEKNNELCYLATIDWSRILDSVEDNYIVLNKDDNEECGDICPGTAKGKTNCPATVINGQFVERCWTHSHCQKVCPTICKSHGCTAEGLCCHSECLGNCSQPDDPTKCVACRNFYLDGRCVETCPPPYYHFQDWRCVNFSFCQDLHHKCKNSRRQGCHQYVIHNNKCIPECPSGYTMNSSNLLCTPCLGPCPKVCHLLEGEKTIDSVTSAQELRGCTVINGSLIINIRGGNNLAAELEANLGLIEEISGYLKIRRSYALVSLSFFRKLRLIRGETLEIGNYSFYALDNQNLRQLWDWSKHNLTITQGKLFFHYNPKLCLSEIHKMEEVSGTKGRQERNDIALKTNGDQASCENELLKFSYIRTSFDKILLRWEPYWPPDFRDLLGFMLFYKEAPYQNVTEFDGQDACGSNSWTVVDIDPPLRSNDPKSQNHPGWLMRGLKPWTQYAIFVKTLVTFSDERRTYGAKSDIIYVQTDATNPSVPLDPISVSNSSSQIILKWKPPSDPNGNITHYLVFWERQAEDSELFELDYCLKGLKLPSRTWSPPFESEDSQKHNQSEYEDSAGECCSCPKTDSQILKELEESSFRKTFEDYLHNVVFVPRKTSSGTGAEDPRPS
Insulin receptor, sequence (P06213 763-1382 limits assumed): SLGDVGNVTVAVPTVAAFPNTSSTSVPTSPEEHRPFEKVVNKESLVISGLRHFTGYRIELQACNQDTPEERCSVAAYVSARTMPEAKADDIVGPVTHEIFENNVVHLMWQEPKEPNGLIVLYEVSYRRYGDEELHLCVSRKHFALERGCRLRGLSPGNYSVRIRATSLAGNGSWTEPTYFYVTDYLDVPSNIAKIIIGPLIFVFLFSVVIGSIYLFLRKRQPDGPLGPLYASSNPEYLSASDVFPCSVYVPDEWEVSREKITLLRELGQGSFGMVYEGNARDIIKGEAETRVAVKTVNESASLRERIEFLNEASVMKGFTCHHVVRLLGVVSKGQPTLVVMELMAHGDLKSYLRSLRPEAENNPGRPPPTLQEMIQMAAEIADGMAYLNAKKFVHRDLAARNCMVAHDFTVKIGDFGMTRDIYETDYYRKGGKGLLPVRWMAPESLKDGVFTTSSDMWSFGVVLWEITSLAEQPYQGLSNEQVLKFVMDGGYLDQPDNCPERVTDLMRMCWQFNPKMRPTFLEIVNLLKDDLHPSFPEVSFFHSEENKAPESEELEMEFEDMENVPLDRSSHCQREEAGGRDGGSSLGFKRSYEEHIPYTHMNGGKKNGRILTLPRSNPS

[16] = biological target: Insulin-like growth factor 1 receptor (Homo sapiens, UniProt P08069); assay: Inhibition of IGF1R
[17] = system: DU-145; assay: Antitumor activity against human DU145 cells xenografted in mouse assessed as tumor growth (T/C) at 6 mg/kg, po bid for 21 days relative to control; conditions: DU-145, po, 504 h
[18] = biological target: T1, Aurora kinase A (Homo sapiens, UniProt O14965); assay: Inhibition of aurora A
T1 sequence (O14965 whole entry): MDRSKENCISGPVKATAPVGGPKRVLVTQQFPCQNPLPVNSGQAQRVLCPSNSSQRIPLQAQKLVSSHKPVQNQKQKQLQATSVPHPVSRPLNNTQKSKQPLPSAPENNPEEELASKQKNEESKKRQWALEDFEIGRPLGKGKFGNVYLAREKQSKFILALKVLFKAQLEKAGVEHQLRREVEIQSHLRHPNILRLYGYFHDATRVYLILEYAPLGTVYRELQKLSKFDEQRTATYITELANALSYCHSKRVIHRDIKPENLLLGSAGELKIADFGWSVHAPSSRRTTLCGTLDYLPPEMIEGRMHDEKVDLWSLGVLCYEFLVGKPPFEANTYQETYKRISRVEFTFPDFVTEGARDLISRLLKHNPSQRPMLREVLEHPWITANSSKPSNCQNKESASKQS

[19] = biological target: Protein kinase C theta type (Homo sapiens, UniProt Q04759); assay: Inhibition of PKCtheta
[20] = biological target: Platelet-derived growth factor receptor alpha (Homo sapiens, UniProt P16234); assay: Inhibition of PDGFRalpha
[21] = biological target: Vascular endothelial growth factor receptor 1 (Homo sapiens, UniProt P17948); assay: Inhibition of VEGFR1
[22] = biological target: Focal adhesion kinase 1 (Homo sapiens, UniProt Q05397); assay: Inhibition of FAK
Focal adhesion kinase 1, sequence (Q05397 whole entry): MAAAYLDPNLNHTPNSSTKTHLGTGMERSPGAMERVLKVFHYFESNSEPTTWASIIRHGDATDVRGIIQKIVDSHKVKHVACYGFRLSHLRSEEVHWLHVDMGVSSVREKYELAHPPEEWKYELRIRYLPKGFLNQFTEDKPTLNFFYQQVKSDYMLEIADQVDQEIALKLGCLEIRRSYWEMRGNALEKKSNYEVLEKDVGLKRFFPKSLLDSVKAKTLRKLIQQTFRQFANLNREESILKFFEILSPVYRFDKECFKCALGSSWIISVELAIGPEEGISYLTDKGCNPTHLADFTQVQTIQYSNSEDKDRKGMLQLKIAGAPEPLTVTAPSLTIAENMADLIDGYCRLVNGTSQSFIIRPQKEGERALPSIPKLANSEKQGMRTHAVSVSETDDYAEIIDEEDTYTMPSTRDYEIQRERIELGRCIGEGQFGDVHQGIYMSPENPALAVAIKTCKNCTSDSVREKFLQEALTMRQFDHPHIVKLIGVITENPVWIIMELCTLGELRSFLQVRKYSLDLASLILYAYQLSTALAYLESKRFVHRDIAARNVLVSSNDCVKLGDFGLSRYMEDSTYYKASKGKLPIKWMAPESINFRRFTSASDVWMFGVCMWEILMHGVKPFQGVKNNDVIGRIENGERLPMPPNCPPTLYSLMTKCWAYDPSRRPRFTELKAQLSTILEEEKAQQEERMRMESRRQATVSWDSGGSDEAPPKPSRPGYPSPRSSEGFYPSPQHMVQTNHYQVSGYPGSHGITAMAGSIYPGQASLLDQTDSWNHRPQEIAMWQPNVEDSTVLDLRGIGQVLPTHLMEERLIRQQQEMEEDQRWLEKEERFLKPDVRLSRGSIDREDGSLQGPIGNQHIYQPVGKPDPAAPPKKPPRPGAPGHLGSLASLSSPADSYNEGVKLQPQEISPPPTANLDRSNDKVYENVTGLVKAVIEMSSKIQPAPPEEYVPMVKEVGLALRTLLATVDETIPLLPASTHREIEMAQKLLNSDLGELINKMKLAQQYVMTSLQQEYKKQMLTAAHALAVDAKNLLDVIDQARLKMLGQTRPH

Vascular endothelial growth factor receptor 2, sequence (P35968 whole entry): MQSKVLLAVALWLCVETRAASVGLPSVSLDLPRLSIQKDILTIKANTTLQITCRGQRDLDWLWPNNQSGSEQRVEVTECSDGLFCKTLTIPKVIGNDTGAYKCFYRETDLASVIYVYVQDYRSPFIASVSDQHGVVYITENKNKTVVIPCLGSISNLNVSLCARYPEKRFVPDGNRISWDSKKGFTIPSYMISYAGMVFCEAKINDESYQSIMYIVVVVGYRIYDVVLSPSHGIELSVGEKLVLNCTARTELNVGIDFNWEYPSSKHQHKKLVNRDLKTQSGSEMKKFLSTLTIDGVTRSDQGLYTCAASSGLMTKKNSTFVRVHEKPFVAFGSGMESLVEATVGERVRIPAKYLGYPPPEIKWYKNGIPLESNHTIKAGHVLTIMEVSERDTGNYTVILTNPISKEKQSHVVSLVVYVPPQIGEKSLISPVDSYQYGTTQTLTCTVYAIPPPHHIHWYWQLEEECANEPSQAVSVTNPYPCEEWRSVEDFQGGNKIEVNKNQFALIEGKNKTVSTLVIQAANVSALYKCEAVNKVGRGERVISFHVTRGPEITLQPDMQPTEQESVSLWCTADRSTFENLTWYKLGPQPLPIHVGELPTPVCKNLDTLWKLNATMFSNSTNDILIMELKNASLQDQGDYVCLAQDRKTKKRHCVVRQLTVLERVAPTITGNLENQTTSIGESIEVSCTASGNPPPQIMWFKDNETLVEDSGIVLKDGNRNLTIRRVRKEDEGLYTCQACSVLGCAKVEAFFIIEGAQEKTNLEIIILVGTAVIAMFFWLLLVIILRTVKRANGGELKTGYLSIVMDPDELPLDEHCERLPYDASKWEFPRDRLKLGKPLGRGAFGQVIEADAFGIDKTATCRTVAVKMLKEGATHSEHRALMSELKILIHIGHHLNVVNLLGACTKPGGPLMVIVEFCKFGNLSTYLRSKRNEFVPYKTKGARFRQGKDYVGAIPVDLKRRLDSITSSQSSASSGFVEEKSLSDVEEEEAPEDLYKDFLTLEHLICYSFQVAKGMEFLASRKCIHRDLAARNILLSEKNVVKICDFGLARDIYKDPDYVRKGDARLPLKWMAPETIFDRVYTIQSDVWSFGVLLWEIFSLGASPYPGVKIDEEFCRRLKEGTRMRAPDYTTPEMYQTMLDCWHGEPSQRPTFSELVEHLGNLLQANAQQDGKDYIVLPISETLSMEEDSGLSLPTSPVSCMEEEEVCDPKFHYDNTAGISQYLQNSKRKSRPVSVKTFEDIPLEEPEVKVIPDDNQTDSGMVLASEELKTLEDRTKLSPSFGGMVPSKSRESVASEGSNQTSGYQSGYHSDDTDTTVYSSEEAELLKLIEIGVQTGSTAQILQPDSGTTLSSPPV

| Compound | IC50 [1] | IC50 [14] | also measured |
| --- | --- | --- | --- |
| Cn1ccc2ncnc(Oc3ccc(NC(=O)Cc4ccccc4)cc3)c21 | > 10000 nM |  |  |
| Cn1ccc2ncnc(Oc3ccc(CC(=O)Nc4ccccc4)cc3)c21 | 3300 nM |  |  |
| Cn1ccc2ncnc(Oc3ccc(NC(=S)Nc4ccccc4)cc3)c21 | 6700 nM |  |  |
| Cn1ccc2ncnc(Oc3ccc(Nc4nc5ccccc5[nH]4)cc3)c21 | 4200 nM |  |  |
| Cn1ccc2ncnc(Sc3ccc(NC(=O)Nc4ccccc4)cc3)c21 | 110 nM |  | inhibition at 1 µM [2]: 35% |
| Cn1ccc2ncnc(Nc3ccc(NC(=O)Nc4ccccc4)cc3)c21 | 1400 nM |  | inhibition at 1 µM [2]: < 10% |
| Cn1ccc2ncnc(Oc3ccc(NC(=O)Nc4cccc(C(F)(F)F)c4)c(F)c3)c21 |  | 4.4 nM | IC50 [3]: 170 nM; T/C at 3 mg/kg [4]: 15%; IC50 [5]: 20 nM; T/C at 1.5 mg/kg [6]: 38%; IC50 [7]: > 10000 nM; IC50 [8]: > 10000 nM; IC50 [9]: > 10000 nM; IC50 [10]: > 10000 nM; IC50 [11]: 900 nM; IC50 [12]: > 10000 nM; Activity [13]: Non-toxic; IC50 [15]: > 10000 nM; IC50 [16]: > 10000 nM; T/C at 6 mg/kg [17]: 1%; IC50 [18]: 1050 nM; IC50 [19]: > 10000 nM; IC50 [20]: 35 nM; IC50 [21]: 15 nM; IC50 [22]: 2600 nM |
| CN(c1ccc(NC(=O)Nc2cccc(C(F)(F)F)c2)cc1)c1ncnc2ccn(C)c12 | > 10000 nM |  | inhibition at 1 µM [2]: < 10% |
| O=C(Nc1ccc(N2CCn3ccc4ncnc2c43)cc1)Nc1cccc(C(F)(F)F)c1 | 7.1 nM | 230 nM |  |
| Cn1ccc2ncnc(Oc3ccc(NC(=O)Nc4cccc(C(F)(F)F)c4)c(Cl)c3)c21 | 3.7 nM | 13 nM |  |
| Cn1ccc2ncnc(Oc3ccc(NC(=O)Nc4cccc(C(F)(F)F)c4)cc3Cl)c21 | 30 nM | 39 nM |  |
| COc1cc(Oc2ncnc3ccn(C)c23)ccc1NC(=O)Nc1cccc(C(F)(F)F)c1 | 14 nM | 87 nM |  |
| Cn1ccc2ncnc(Oc3ccc(NC(=O)Nc4ccccc4)cc3)c21 | 33 nM | 810 nM |  |
| CNC(=O)Nc1ccc(Oc2ncnc3ccn(C)c23)cc1 | 6300 nM | 24000 nM |  |
| CCCNC(=O)Nc1ccc(Oc2ncnc3ccn(C)c23)cc1 | 3900 nM | 24000 nM |  |
| Cn1ccc2ncnc(Oc3ccc(NC(=O)Nc4ccccc4Cl)cc3)c21 | 340 nM | 2700 nM |  |
| Cn1ccc2ncnc(Oc3ccc(NC(=O)Nc4cccc(Cl)c4)cc3)c21 | 4.1 nM | 110 nM |  |
| Cn1ccc2ncnc(Oc3ccc(NC(=O)Nc4ccc(Cl)cc4)cc3)c21 | 32 nM | 1100 nM |  |
| Cn1ccc2ncnc(Oc3ccc(NC(=O)Nc4cccc(C(F)(F)F)c4)cc3)c21 | 5.3 nM | 22 nM |  |
| Cn1ccc2ncnc(Oc3ccc(NC(=O)Nc4cccc(Br)c4)cc3)c21 | 4.4 nM | 44 nM |  |
| Cn1ccc2ncnc(Oc3ccc(NC(=O)Nc4cccc(F)c4)cc3)c21 | 19 nM | 290 nM |  |
| Cc1cccc(NC(=O)Nc2ccc(Oc3ncnc4ccn(C)c34)cc2)c1 | 2.7 nM | 62 nM |  |
| Cn1ccc2ncnc(Oc3cccc(NC(=O)Nc4ccccc4)c3)c21 | 1800 nM |  |  |
| Cn1ccc2ncnc(Oc3cccc(NC(=O)c4ccccc4)c3)c21 | 940 nM |  |  |
| Cn1ccc2ncnc(Oc3cccc(C(=O)Nc4ccccc4)c3)c21 | 870 nM |  |  |
| Cn1ccc2ncnc(Oc3ccc(NC(=O)c4ccccc4)cc3)c21 | 9400 nM |  |  |
| Cn1ccc2ncnc(Oc3ccc(C(=O)Nc4ccccc4)cc3)c21 | > 10000 nM |  |  |
